Assay results from ChEMBL document CHEMBL1201862, “PubChem BioAssay data set” (2004).
Calls of active or inactive are those of the source.

Legend:
[1] = target: T1, Endoribonuclease toxin MazF (Escherichia coli K-12, UniProt P0AE70); test: activation of MazEF endoribonuclease cleavage – biochemical, fluorescence, single-stranded RNA substrate, uHTS hits, dose response (AID 588481); assay type: functional
T1 sequence (P0AE70 whole entry): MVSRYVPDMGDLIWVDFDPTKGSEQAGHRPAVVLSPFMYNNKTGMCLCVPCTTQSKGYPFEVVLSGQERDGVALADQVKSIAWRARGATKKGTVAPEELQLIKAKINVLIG

[2] = target: T1, Endoribonuclease toxin MazF; test: substrate-only fluorescence increase artefacts – biochemical, single-stranded RNase substrate, counter-screen for MazEF activator project, dose response (AID 588502); assay type: functional
[3] = target: Bcl-2-like protein 1 (Homo sapiens, UniProt Q07817); test: blockers of BCLXL peptide binding – biochemical, fluorescence polarization, 1536-well, selectivity assay for MCL1 inhibitor project, dose response (AID 2218)
Sequence of Bcl-2-like protein 1 (Q07817 whole entry): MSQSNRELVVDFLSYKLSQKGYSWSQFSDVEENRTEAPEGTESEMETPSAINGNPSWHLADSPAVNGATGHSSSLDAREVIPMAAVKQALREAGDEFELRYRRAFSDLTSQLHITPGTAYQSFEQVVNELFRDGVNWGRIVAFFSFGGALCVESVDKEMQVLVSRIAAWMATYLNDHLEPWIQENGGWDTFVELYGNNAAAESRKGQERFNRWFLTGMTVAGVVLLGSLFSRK

[4] = target: Induced myeloid leukemia cell differentiation protein Mcl-1 (Homo sapiens, UniProt Q07820); test: blockers of MCL1 binding to BIM peptide – biochemical, fluorescence polarization, BIM-BH3 peptide, 1536-well, dose response (AID 2217)
Sequence of Induced myeloid leukemia cell differentiation protein Mcl-1 (Q07820 whole entry): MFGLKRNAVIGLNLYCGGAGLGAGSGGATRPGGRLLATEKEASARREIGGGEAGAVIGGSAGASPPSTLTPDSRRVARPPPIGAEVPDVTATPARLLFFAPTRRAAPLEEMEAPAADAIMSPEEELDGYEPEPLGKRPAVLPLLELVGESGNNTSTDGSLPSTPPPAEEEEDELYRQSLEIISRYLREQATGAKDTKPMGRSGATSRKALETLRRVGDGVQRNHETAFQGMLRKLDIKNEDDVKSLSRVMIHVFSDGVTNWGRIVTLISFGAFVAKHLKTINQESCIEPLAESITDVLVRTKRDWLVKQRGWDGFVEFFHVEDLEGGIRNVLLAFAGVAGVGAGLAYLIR

[5] = A High Throughput Confirmatory Assay used to Identify Novel Compounds that Inhibit Mycobacterium Tuberculosis in the absence of Glycerol.; assay type: functional
[6] = test system: Escherichia coli; test: microbe, parasite or virus in culture
[7] = Luminescence Cell-Based Dose Confirmation to Identify Activators of 5'UTR Stem-Loop Driven Alpha-Synuclein mRNA Translation in H4 Neuroglioblastoma Cells. [Related pubchem assays: 1829 (Project Summary), 1814 (Primary HTS)]; assay type: functional
[8] = Luminescence Cell-Based Dose Response to Identify Activators of Luciferase Translation or Activity in H4-C Neuroglioblastoma Cells. [Related pubchem assays: 1829 (Project Summary), 1814 (Primary HTS)]; assay type: functional
[9] = Luminescence Cell-Based Dose Response to Identify Activators of 5'UTR Stem-Loop Driven Prion Protein mRNA Translation in H4-C Neuroglioblastoma Cells. [Related pubchem assays: 1829 (Project Summary), 1814 (Primary HTS)]; assay type: functional
[10] = test system: H4; test: Luminescence Cell-Based Dose Response HTS to Identify Activators of 5'UTR Stem-Loop Driven Prion Protein mRNA Translation in H4 Neuroglioblastoma Cells. [Related pubchem assays: 1829 (Project Summary), 1814 (Primary HTS)]; assay type: functional; settings: Homo sapiens
[11] = Luminescence Cell-Based Dose Response HTS to Identify Activators of Luciferase Translation or Activity in H4 […] Cells. [Related pubchem assays: 1829 (Project Summary), 1814 (Primary HTS)]; assay type: functional
[12] = test system: BJ; test: BJ-TERT-LT-ST fibroblast viability loss – cell-based, RAS-independent, luminescence, dose response (AID 1935); assay type: functional; settings: Homo sapiens;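 also: BJ fibroblasts immortalized with TERT plus LT and ST oncogenes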
[13] = target: T2, Microphthalmia-associated transcription factor (Homo sapiens, UniProt O75030); test: reducers of TRPM1 reporter luminescence, concentration series – cell-based, SK-MEL-5, cherry-picked, set 3, MITF inhibitor project, dose response (AID 493073); assay type: functional;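 also: SK-MEL-5 melanoma cells with luciferase driven by the MITF target TRPM1 promoter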
T2 sequence (O75030 whole entry): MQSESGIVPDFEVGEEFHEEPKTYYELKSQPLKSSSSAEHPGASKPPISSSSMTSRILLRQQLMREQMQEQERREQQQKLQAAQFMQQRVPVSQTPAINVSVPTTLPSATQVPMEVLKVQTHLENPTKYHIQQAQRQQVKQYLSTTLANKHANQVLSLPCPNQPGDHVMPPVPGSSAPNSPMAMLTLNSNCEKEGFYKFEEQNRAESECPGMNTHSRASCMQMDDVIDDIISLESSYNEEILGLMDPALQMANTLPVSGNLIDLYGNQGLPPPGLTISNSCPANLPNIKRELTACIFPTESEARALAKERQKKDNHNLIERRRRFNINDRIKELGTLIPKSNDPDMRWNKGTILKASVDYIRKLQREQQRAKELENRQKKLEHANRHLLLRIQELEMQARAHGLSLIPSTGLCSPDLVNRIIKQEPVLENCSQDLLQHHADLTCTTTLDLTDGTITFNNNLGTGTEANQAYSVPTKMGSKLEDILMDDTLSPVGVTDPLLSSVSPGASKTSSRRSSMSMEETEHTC

[14] = target: G-protein coupled receptor 55 (Homo sapiens, UniProt Q9Y2T6); test: selective activators of receptor GPR55 – imaging, U2OS cells, beta-arrestin-GFP redistribution, primary screen (AID 1961); assay type: functional
Sequence of G-protein coupled receptor 55 (Q9Y2T6 whole entry): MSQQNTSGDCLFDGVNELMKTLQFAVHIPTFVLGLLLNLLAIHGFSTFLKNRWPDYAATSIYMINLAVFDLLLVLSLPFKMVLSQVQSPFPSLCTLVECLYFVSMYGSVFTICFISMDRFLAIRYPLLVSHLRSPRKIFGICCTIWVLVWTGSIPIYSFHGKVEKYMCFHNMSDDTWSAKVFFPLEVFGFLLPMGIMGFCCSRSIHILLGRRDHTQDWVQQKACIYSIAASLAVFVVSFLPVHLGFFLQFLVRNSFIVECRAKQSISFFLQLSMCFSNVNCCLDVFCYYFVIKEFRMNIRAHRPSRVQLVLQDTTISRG

[15] = target: Galanin receptor type 2 (Homo sapiens, UniProt O43603); test: Dose Response cell-based high-throughput screening assay to identify antagonists of galanin receptor 2 (GALR2). [Related pubchem assays: 828, 866 ]; assay type: functional
Sequence of Galanin receptor type 2 (O43603 whole entry): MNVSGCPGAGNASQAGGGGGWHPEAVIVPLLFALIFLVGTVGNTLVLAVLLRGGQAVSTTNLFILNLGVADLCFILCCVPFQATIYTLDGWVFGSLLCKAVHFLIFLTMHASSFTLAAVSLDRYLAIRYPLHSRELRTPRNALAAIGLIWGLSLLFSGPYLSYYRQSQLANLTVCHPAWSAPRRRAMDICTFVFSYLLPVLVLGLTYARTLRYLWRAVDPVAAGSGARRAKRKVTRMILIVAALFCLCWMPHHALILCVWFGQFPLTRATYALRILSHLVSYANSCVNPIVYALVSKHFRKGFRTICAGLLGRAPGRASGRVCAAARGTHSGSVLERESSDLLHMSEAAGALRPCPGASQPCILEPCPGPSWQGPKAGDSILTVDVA

[16] = target: T3, High affinity choline transporter 1 (Homo sapiens, UniProt Q9GZV3); test: human choline transporter blockers, potency – cell-based, 5-point CRC, membrane potential dye, dose response (AID 504840); assay type: functional
T3 sequence (Q9GZV3 whole entry): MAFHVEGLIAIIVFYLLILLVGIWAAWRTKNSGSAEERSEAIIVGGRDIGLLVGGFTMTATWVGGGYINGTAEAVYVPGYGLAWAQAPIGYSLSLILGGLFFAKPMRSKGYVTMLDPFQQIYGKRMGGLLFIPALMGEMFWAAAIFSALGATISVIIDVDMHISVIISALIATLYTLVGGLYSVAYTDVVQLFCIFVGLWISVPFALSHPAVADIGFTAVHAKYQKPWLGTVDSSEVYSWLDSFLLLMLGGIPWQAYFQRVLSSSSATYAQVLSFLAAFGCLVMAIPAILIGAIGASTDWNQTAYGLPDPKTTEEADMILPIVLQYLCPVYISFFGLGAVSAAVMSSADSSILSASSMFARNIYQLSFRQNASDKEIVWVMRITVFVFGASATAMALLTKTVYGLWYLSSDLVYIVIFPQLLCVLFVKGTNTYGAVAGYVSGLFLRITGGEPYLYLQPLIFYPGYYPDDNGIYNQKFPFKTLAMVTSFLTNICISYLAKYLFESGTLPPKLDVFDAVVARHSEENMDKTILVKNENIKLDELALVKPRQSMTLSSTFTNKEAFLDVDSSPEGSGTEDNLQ

[17] = DRD fibroblast viability loss – cell-based, non-viral oncogenic, luminescence, dose response (AID 1934); assay type: functional; settings: Homo sapiens
[18] = target: Heat shock protein HSP 90-alpha (Homo sapiens, UniProt P07900); assay type: functional, organism-based
[19] = test system: BJ; test: BJ-TERT fibroblast viability loss – cell-based, RAS-independent, luminescence, dose response (AID 1933); assay type: functional; settings: Homo sapiens
[20] = test system: BJ; test: cells; assay type: functional, cell-based; settings: Homo sapiens
[21] = NIH-3T3 fibroblast cytotoxicity, dose response, cytotoxicity control, cell-based, fluorescence, Alamar Blue, secondary assay (AID 2327); assay type: functional;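 also: NIH-3T3 mouse fibroblasts cultured with fluconazole at 8 µg/mL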
[22] = target: T4, Heat shock factor protein 1 (Mus musculus, UniProt P38532); test: enhancement of HSF1-driven luciferase signal – cell-based, NIH3T3, luminescence, dose retest, confirmation (AID 435004); assay type: functional;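 also: stress induced by proteasome inhibitor MG132 added 30 min after compound; luciferase reporter driven by HSF1 response element in NIH3T3 cells; actives raise luminescence as potentiators of the MG132 stress response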
T4 sequence (P38532 whole entry): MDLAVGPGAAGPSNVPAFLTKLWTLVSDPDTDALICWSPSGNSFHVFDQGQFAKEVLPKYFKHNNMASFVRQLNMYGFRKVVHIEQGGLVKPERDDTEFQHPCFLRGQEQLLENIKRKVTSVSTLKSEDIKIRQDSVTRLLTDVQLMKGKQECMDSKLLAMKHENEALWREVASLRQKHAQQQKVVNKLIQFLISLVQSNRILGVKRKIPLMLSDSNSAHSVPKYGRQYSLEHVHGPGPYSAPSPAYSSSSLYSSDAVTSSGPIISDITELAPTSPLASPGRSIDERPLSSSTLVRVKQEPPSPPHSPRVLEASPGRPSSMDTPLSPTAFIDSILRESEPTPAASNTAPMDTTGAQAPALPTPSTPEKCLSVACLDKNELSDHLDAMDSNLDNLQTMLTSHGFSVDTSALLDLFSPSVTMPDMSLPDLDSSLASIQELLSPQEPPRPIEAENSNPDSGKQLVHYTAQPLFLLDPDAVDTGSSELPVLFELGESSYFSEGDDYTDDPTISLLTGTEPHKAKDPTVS

[23] = fluconazole-exposed Candida albicans growth modulators – fluorescence, retest, confirmation (AID 2467); assay type: functional, cell-based
[24] = target: T5, Mannose-6-phosphate isomerase (Homo sapiens, UniProt P34949); test: MPI enzyme activity inhibition – biochemical, fluorescence intensity, coupled assay, primary screen (AID 1209)
T5 sequence (P34949 whole entry): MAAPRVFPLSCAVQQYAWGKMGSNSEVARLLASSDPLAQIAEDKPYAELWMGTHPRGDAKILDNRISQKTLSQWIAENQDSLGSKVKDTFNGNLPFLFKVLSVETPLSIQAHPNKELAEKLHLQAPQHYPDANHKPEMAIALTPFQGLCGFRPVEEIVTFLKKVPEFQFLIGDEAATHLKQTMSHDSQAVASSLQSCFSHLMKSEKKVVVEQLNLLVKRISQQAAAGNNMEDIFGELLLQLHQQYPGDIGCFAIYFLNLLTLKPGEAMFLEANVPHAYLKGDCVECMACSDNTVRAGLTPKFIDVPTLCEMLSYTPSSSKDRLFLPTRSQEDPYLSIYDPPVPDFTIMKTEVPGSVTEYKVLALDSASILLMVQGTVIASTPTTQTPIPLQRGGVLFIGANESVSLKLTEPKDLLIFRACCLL

[25] = target: T5, Mannose-6-phosphate isomerase; test: MPI inhibition at elevated mannose 6-phosphate – biochemical, fluorescence intensity, high mannose 6-phosphate, primary screen (AID 1220)
[26] = target: T6, Histone-lysine N-methyltransferase NSD2 (Homo sapiens, UniProt O96028); assay type: biochemical
T6 sequence (O96028 whole entry): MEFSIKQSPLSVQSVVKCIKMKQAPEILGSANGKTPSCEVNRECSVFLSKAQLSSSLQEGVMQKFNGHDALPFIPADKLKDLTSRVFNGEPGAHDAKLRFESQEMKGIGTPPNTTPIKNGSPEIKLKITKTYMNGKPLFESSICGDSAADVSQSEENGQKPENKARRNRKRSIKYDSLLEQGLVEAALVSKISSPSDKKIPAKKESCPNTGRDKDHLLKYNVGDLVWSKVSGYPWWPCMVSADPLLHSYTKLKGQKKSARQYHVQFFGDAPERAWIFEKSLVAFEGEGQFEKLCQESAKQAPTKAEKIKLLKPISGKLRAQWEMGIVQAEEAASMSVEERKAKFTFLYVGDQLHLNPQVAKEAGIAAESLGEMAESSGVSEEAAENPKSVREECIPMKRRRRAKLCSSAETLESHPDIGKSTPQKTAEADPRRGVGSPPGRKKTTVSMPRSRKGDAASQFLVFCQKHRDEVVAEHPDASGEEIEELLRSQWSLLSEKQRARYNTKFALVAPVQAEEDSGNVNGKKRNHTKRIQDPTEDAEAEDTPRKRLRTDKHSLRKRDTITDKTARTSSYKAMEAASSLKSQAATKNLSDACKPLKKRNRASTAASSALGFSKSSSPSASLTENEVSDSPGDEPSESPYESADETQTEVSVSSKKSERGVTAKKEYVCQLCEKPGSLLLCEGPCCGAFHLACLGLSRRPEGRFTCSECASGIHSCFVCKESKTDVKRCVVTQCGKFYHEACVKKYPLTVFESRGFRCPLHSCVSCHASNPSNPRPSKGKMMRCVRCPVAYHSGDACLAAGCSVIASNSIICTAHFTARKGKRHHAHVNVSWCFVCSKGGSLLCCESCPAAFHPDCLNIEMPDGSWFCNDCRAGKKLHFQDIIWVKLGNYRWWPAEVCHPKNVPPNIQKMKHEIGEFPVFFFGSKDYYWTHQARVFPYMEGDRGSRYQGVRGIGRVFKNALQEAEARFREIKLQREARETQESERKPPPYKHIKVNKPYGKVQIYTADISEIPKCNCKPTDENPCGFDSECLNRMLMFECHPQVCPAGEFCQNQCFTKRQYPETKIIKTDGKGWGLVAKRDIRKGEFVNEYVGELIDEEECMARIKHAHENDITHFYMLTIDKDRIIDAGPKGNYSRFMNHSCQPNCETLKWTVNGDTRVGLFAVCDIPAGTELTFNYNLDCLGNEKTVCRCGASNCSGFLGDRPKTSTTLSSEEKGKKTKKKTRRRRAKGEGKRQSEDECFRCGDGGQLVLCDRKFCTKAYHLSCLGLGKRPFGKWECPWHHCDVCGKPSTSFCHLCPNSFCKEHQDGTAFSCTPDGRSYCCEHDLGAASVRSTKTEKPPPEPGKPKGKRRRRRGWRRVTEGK

[27] = target: NADPH oxidase 1 (Homo sapiens, UniProt Q9Y5S8); assay type: functional, cell-based;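 also: Cell-based assay with luminescence read-out, IC50 derived from inhibitor dose-response curves; intracellular ROS from endogenous NOX1 in intact HT29 colon cancer cells; potency of inhibitors that lower the ROS luminescence signal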
Sequence of NADPH oxidase 1 (Q9Y5S8 whole entry): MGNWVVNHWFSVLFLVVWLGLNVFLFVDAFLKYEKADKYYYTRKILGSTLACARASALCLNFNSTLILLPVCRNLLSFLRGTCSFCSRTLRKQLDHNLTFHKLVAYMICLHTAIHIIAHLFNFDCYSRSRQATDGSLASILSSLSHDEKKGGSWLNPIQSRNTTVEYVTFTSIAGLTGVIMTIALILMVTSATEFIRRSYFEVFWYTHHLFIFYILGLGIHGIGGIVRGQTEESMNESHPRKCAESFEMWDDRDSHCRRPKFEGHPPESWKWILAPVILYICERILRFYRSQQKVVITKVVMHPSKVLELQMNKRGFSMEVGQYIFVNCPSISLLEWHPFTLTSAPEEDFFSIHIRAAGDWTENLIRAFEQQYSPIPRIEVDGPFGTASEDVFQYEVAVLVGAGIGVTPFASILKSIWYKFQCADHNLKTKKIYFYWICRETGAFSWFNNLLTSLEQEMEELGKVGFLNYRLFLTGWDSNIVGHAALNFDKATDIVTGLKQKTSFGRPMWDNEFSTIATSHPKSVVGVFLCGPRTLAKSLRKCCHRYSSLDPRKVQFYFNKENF

[28] = target: Protein-tyrosine kinase 2-beta (Homo sapiens, UniProt Q14289);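 also: potency of inhibitors of PYK2 kinase phosphorylation of poly-GT substrate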
Sequence of Protein-tyrosine kinase 2-beta (Q14289 whole entry): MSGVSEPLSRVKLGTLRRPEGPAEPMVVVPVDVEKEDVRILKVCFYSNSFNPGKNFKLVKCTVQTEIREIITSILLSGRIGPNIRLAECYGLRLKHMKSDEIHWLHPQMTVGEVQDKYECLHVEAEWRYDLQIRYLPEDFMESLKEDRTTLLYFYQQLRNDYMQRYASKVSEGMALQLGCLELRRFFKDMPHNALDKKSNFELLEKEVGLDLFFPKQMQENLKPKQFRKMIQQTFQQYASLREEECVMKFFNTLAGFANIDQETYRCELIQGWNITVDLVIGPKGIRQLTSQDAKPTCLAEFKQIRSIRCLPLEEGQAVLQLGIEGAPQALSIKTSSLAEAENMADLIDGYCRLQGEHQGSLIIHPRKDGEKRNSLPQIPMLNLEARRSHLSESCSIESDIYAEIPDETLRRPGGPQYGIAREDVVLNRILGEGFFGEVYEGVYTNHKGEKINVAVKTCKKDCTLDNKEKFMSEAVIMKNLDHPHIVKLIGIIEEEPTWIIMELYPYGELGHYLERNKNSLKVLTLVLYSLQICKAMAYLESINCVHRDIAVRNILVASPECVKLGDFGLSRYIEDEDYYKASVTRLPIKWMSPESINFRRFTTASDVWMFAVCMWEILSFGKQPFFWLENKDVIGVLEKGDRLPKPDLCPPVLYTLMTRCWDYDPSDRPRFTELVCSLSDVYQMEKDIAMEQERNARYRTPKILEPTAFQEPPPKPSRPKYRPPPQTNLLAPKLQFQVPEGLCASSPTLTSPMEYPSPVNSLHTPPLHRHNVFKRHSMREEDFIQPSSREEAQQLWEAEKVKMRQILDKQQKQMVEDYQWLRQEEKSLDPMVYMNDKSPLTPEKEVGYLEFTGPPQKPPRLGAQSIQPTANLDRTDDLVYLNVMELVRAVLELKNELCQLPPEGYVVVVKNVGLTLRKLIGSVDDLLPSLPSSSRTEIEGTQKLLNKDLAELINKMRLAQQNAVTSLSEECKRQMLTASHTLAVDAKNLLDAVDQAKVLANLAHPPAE

O=C(Oc1ccc2c(c1)O/C(=C\c1ccncc1)C2=O)c1ccccc1
EC50 [1]: > 99 µM (inactive) | EC50 [2]: 48 µM (inactive) | IC50 [3]: 15.5 µM (not active) | IC50 [4]: 11.7 µM (not active)

O=C1c2ccccc2CC1Sc1nnc(-c2ccncc2)o1 (stereo not drawn)
IC50 [5]: > 100 µM (active) | AC50 [6]: 268 µM (active)

Cc1ccc(C(=O)CSc2nsc(C)c2C#N)cc1
EC50 [7]: 0.976 µM (active) | EC50 [8]: 1.49 µM (active) | EC50 [9]: 0.646 µM (active) | EC50 [10]: > 120 µM (not active) | EC50 [11]: < 0.1 µM (inconclusive)

CC(=O)SC(C[N+](=O)[O-])c1cn(C(C)=O)c2ccccc12 (stereo not drawn)
EC50 [12]: 6.21 µM (inconclusive) | AC50 [13]: 3.54 µM (active) | EC50 [14]: > 32 µM (inactive) | IC50 [15]: 14.4 µM (not active) | IC50 [16]: 14.5 µM (active) | EC50 [17]: 6.74 µM (active) | AC50 [18]: 1.48 µM (active) | EC50 [19]: 5.02 µM (inconclusive) | EC50 [20]: > 150 µM (inconclusive) | EC50 [21]: 12.9 µM (inconclusive) | EC50 [22]: 6.84 µM (active) | EC50 [23]: 19.5 µM (active)

CN1c2cccc3cccc(c23)N(C)C1(C)C
IC50 [24]: > 50 µM (not active) | IC50 [25]: > 50 µM (not active) | AC50 [26]: 11.4 µM (active)

Ic1ccc(-c2nc(-c3ccccc3)c(-c3ccccc3)[nH]2)cc1
IC50 [27]: > 17 µM (not active)

COCCO/C(O)=C1\C(C)=NC2=C(C(=O)CC(c3cccs3)C2)C1c1ccsc1 (stereo not drawn)
IC50 [28]: > 69.5 µM (not active)
